Measured values taken from US11807644B2 (PMV Pharmaceuticals, Inc., priority 2020, dated 2023).

target: T1, recombinant His-tag Y220C p53 DBD protein (Homo sapiens, UniProt P04637, Y220C); experiment: In vitro DNA binding activity assay (TR-FRET): binding of His-tag Y220C p53 DBD to biotin-labeled consensus DNA; assay type: biochemical; conditions: SC150 = concentration to increase DNA binding by […], His-tag Y220C p53 DBD, biotin-labeled consensus DNA
T1 construct: recombinant His-tag Y220C p53 DBD protein (amino acids #˜94-312)

SMILES | Y220C SC150 (μM)
CN1CC[C@@H](Nc2cccc3c2cc(-c2noc(CNC(=O)c4csc(C(C)(C)O)c4)n2)n3CC(F)(F)F)[C@@H](F)C1 [Compound 425B, N-{[3-(4-{[(3S,4R)-3-fluoro-1-methylpiperidin-4-yl]amino}-1-(2,2,2-trifluoroethyl)-1H-indol-2-yl)-1,2,4-oxadiazol-5-yl]methyl}-5-(2-hydroxypropan-2-yl)thiophene-3-carboxamide] | * (* = 0 μM ≤ SC150 < 0.1 μM)
COCC1(n2ccc(C(=O)NCc3nc(-c4cc5c(N[C@@H]6CCN(C)C[C@@H]6F)cccc5n4CC(F)(F)F)no3)c2)CC1 [Compound 426B, N-{[3-(4-{[(3S,4R)-3-fluoro-1-methylpiperidin-4-yl]amino}-1-(2,2,2-trifluoroethyl)-1H-indol-2-yl)-1,2,4-oxadiazol-5-yl]methyl}-1-[1-(methoxymethyl)cyclopropyl]-1H-pyrrole-3-carboxamide] | * (* = 0 μM ≤ SC150 < 0.1 μM)
CCC(C)(C)n1ccc(C(=O)NCc2nc(-c3cc4c(N[C@@H]5CCN(C)C[C@@H]5F)cccc4n3CC(F)(F)F)no2)c1 [Compound 427B, N-{[3-(4-{[(3S,4R)-3-fluoro-1-methylpiperidin-4-yl]amino}-1-(2,2,2-trifluoroethyl)-1H-indol-2-yl)-1,2,4-oxadiazol-5-yl]methyl}-1-(2-methylbutan-2-yl)-1H-pyrrole-3-carboxamide] | * (* = 0 μM ≤ SC150 < 0.1 μM)
CN1CC[C@@H](Nc2cccc3c2cc(-c2noc(CNC(=O)c4ccn(C5(C)CC5)c4)n2)n3CC(F)(F)F)[C@@H](F)C1 [Compound 428B, N-{[3-(4-{[(3S,4R)-3-fluoro-1-methylpiperidin-4-yl]amino}-1-(2,2,2-trifluoroethyl)-1H-indol-2-yl)-1,2,4-oxadiazol-5-yl]methyl}-1-(1-methylcyclopropyl)-1H-pyrrole-3-carboxamide] | * (* = 0 μM ≤ SC150 < 0.1 μM)
CN1CC[C@@H](Nc2cccc3c2cc(-c2noc(CNC(=O)c4csc(N)c4)n2)n3CC(F)(F)F)[C@@H](F)C1 [Compound 429B, 5-amino-N-{[3-(4-{[(3S,4R)-3-fluoro-1-methylpiperidin-4-yl]amino}-1-(2,2,2-trifluoroethyl)-1H-indol-2-yl)-1,2,4-oxadiazol-5-yl]methyl}thiophene-3-carboxamide] | * (* = 0 μM ≤ SC150 < 0.1 μM)
CC(C)c1nc(C(=O)NCc2nc(-c3cc4c(N[C@@H]5CCN(C)C[C@@H]5F)cccc4n3CC(F)(F)F)no2)co1 [Compound 430B, N-{[3-(4-{[(3S,4R)-3-fluoro-1-methylpiperidin-4-yl]amino}-1-(2,2,2-trifluoroethyl)-1H-indol-2-yl)-1,2,4-oxadiazol-5-yl]methyl}-2-(propan-2-yl)-1,3-oxazole-4-carboxamide] | * (* = 0 μM ≤ SC150 < 0.1 μM)
CC(C)c1ncc(C(=O)NCc2nc(-c3cc4c(N[C@@H]5CCN(C)C[C@@H]5F)cccc4n3CC(F)(F)F)no2)s1 [Compound 431B, N-{[3-(4-{[(3S,4R)-3-fluoro-1-methylpiperidin-4-yl]amino}-1-(2,2,2-trifluoroethyl)-1H-indol-2-yl)-1,2,4-oxadiazol-5-yl]methyl}-2-(propan-2-yl)-1,3-thiazole-5-carboxamide] | * (* = 0 μM ≤ SC150 < 0.1 μM)
CN1CC[C@@H](Nc2cccc3c2cc(-c2noc(CNC(=O)c4cnc(N(C)C)s4)n2)n3CC(F)(F)F)[C@@H](F)C1 [Compound 432B, 2-(dimethylamino)-N-{[3-(4-{[(3S,4R)-3-fluoro-1-methylpiperidin-4-yl]amino}-1-(2,2,2-trifluoroethyl)-1H-indol-2-yl)-1,2,4-oxadiazol-5-yl]methyl)-1,3-thiazole-5-carboxamide] | * (* = 0 μM ≤ SC150 < 0.1 μM)
CN1CC[C@@H](Nc2cccc3c2cc(-c2noc(CNC(=O)c4cn(C5(C)CCOCC5)cn4)n2)n3CC(F)(F)F)[C@@H](F)C1 [Compound 433B, N-{[3-(4-{[(3S,4R)-3-fluoro-1-methylpiperidin-4-yl]amino}-1-(2,2,2-trifluoroethyl)-1H-indol-2-yl)-1,2,4-oxadiazol-5-yl]methyl}-1-(4-methyloxan-4-yl)-1H-imidazole-4-carboxamide] | * (* = 0 μM ≤ SC150 < 0.1 μM)
CC(C)c1nc(C(=O)NCc2nc(-c3cc4c(N[C@@H]5CCN(C)C[C@@H]5F)cccc4n3CC(F)(F)F)no2)cs1 [Compound 434B, N-{[3-(4-{[(3S,4R)-3-fluoro-1-methylpiperidin-4-yl]amino}-1-(2,2,2-trifluoroethyl)-1H-indol-2-yl)-1,2,4-oxadiazol-5-yl]methyl}-2-(propan-2-yl)-1,3-thiazole-4-carboxamide] | * (* = 0 μM ≤ SC150 < 0.1 μM)
CN1CC[C@@H](Nc2cccc3c2cc(-c2noc(CNC(=O)c4csc(N(C)C)n4)n2)n3CC(F)(F)F)[C@@H](F)C1 [Compound 435B, 2-(dimethylamino)-N-{[3-(4-{[(3S,4R)-3-fluoro-1-methylpiperidin-4-yl]amino}-1-(2,2,2-trifluoroethyl)-1H-indol-2-yl)-1,2,4-oxadiazol-5-yl]methyl}-1,3-thiazole-4-carboxamide] | * (* = 0 μM ≤ SC150 < 0.1 μM)
CN1CC[C@@H](Nc2cccc3c2cc(-c2noc(CNC(=O)c4csc(N5CCOCC5)c4)n2)n3CC(F)(F)F)[C@@H](F)C1 [Compound 436B, N-{[3-(4-{[(3S,4R)-3-fluoro-1-methylpiperidin-4-yl]amino}-1-(2,2,2-trifluoroethyl)-1H-indol-2-yl)-1,2,4-oxadiazol-5-yl]methyl}-5-(morpholin-4-yl)thiophene-3-carboxamide] | * (* = 0 μM ≤ SC150 < 0.1 μM)
CN1CC[C@@H](Nc2cccc3c2cc(-c2noc(CNC(=O)c4cnc(C(C)(C)C)s4)n2)n3CC(F)(F)F)[C@@H](F)C1 [Compound 437B, 2-tert-butyl-N-{[3-(4-{[(3S,4R)-3-fluoro-1-methylpiperidin-4-yl]amino}-1-(2,2,2-trifluoroethyl)-1H-indol-2-yl)-1,2,4-oxadiazol-5-yl]methyl}-1,3-thiazole-5-carboxamide] | * (* = 0 μM ≤ SC150 < 0.1 μM)
CN1CC[C@@H](Nc2cccc3c2cc(-c2noc(CNC(=O)c4csc(C(C)(C)C)n4)n2)n3CC(F)(F)F)[C@@H](F)C1 [Compound 438B, 2-tert-butyl-N-{[3-(4-{[(3S,4R)-3-fluoro-1-methylpiperidin-4-yl]amino}-1-(2,2,2-trifluoroethyl)-1H-indol-2-yl)-1,2,4-oxadiazol-5-yl]methyl}-1,3-thiazole-4-carboxamide] | * (* = 0 μM ≤ SC150 < 0.1 μM)
COC(C)(C)c1ccc(C(=O)NCc2nc(-c3cc4c(N[C@@H]5CCN(C)C[C@@H]5F)cccc4n3CC(F)(F)F)no2)s1 [Compound 439B, N-{[3-(4-{[(3S,4R)-3-fluoro-1-methylpiperidin-4-yl]amino}-1-(2,2,2-trifluoroethyl)-1H-indol-2-yl)-1,2,4-oxadiazol-5-yl]methyl}-5-(2-methoxypropan-2-yl)thiophene-2-carboxamide] | * (* = 0 μM ≤ SC150 < 0.1 μM)
CN1CC[C@@H](Nc2cccc3c2cc(-c2noc(CNC(=O)c4coc(C(C)(C)C)n4)n2)n3CC(F)(F)F)[C@@H](F)C1 [Compound 440B, 2-tert-butyl-N-{[3-(4-{[(3S,4R)-3-fluoro-1-methylpiperidin-4-yl]amino}-1-(2,2,2-trifluoroethyl)-1H-indol-2-yl)-1,2,4-oxadiazol-5-yl]methyl}-1,3-oxazole-4-carboxamide] | * (* = 0 μM ≤ SC150 < 0.1 μM)
CN1CC[C@@H](Nc2cccc3c2cc(-c2noc(CNC(=O)c4ccn(C(C)(C)CO)c4)n2)n3CC(F)(F)F)[C@@H](F)C1 [Compound 441B] | * (* = 0 μM ≤ SC150 < 0.1 μM)
CN1CC[C@@H](Nc2cccc3c2cc(-c2noc(CNC(=O)c4ccc(C(C)(C)C#N)s4)n2)n3CC(F)(F)F)[C@@H](F)C1 [Compound 442B, 5-(1-cyano-1-methylethyl)-N-{[3-(4-{[(3S,4R)-3-fluoro-1-methylpiperidin-4-yl]amino}-1-(2,2,2-trifluoroethyl)-1H-indol-2-yl)-1,2,4-oxadiazol-5-yl]methyl}thiophene-2-carboxamide] | * (* = 0 μM ≤ SC150 < 0.1 μM)
CN1CC[C@@H](Nc2cccc3c2cc(-c2noc(CNC(=O)c4cnc(C(C)(C)C)o4)n2)n3CC(F)(F)F)[C@@H](F)C1 [Compound 443B, 2-tert-butyl-N-{[3-(4-{[(3S,4R)-3-fluoro-1-methylpiperidin-4-yl]amino}-1-(2,2,2-trifluoroethyl)-1H-indol-2-yl)-1,2,4-oxadiazol-5-yl]methyl}-1,3-oxazole-5-carboxamide] | * (* = 0 μM ≤ SC150 < 0.1 μM)
CC(C)c1ccc(C(=O)NCc2nc(-c3cc4c(N[C@@H]5CCN(C)C[C@@H]5F)cccc4n3CC(F)(F)F)no2)s1 [Compound 444B, N-{[3-(4-{[(3S,4R)-3-fluoro-1-methylpiperidin-4-yl]amino}-1-(2,2,2-trifluoroethyl)-1H-indol-2-yl)-1,2,4-oxadiazol-5-yl]methyl}-5-(propan-2-yl)thiophene-2-carboxamide] | * (* = 0 μM ≤ SC150 < 0.1 μM)
CN1CC[C@@H](Nc2cccc3c2cc(-c2noc(CNc4nccc5ccsc45)n2)n3CC(F)(F)F)[C@@H](F)C1 [Compound 445B, N-[(3S,4R)-3-fluoro-1-methylpiperidin-4-yl]-2-{5-[({thieno[2,3-c]pyridin-7-yl}amino)methyl]-1,2,4-oxadiazol-3-yl}-1-(2,2,2-trifluoroethyl)-1H-indol-4-amine] | * (* = 0 μM ≤ SC150 < 0.1 μM)
CN1CC[C@@H](Nc2cccc3c2cc(-c2noc(CNC(=O)c4ccc(C5(C)CC5)s4)n2)n3CC(F)(F)F)[C@@H](F)C1 [Compound 446B] | * (* = 0 μM ≤ SC150 < 0.1 μM)
COC(C)(C)c1cc(C(=O)NCc2nc(-c3cc4c(N[C@@H]5CCN(C)C[C@@H]5F)cccc4n3CC(F)(F)F)no2)cs1 [Compound 447B, N-{[3-(4-{[(3S,4R)-3-fluoro-1-methylpiperidin-4-yl]amino}-1-(2,2,2-trifluoroethyl)-1H-indol-2-yl)-1,2,4-oxadiazol-5-yl]methyl}-5-(2-methoxypropan-2-yl)thiophene-3-carboxamide] | * (* = 0 μM ≤ SC150 < 0.1 μM)
